The source of these data is PMC4627759, “Identification of Host-Plant Volatiles and Characterization of Two Novel General Odorant-Binding Proteins from the Legume Pod Borer, Maruca vitrata Fabricius (Lepidoptera: Crambidae)” (PLoS ONE, 2015).

Entries after “also recorded” stand apart in the source; their conditions may differ. Read-outs that look alike come from different tables or passages of the source.

Assay [1] concerns antennae of Maruca vitrata females. Briefly: GC-EAD: antennal response of female moths to floral volatiles. As to conditions: volatiles of V. unguiculata flower buds/flowers. The protocol: Headspace collections were initially analyzed by an Agilent Technologies 7890A GC with a flame ionization detector (FID) coupled with an electroantennogram detector (Syntech, Hilversum, The Netherlands) followed the procedures as described by with some modifications. The column was kept at 50°C for 1 min, increased to 200°C at a rate of 10°C/min and then increased to 240°C at a rate of 5°C/min, which was maintained for 5 min. The outlet of the GC column was split with a specific Electronic Pressure Control splitter (Agilent) to obtain the requested flow accuracy in a ratio of 1: 3 for the FID and the cut antenna. Volatile compounds eluting from the GC column were led to the mounted antenna through a heated (230°C) transfer line (TC-02, Syntech, Hilversum, the Netherlands). Each antenna was prepared by cutting both distal and basic segments and was immediately mounted on the holder using conductive gel (Spectra® 360; Parker Laboratories, Fairfield, New Jersey, USA). Each sample was tested five times. Each tested antenna was derived from a different female and used only once. Synthetic chemicals used in the experiments were purchased from Sigma Chemical Co., J&K Scientific Ltd., Tokyo Chemical Industry Co., Sinopharm Chemical Reagent Co. and Aladdin Chemistry Co., respectively.

Assay [2] concerns the target MvitGOBP1 (Maruca vitrata, UniProt A0A0S1S6H9). Briefly: Fluorescence competitive binding assay (1-NPN displacement) with recombinant MvitGOBP1. The protocol: (§1) Fluorescence binding activity was determined as described by previous study. Emission fluorescence spectra were recorded on a Hitachi F-4500 at 25°C in a right angle configuration, with a 1 cm light path quartz cuvette and 5 nm slits for both excitation and emission. The protein was dissolved in 20 mM Tris-HCl buffer, pH 7.4, and ligands were added as 1 mM methanol solutions. To measure the affinity of the fluorescent ligand 1-NPN to MvitGOBP1-2, a 2 μM protein solution in 20 mM Tris-HCl (pH 7.4) was titrated with aliquots of […] ligand in methanol to final concentrations of 2–16 μM. The probe was excited at 337 nm and emission spectra were recorded between 380 and 450 nm. The affinities of the other ligands were measured in competitive binding assays, where a solution of the protein and 1-NPN, both at a concentration of 2 μM, was titrated with 1 mM methanol solutions of each competitor over concentration ranges of 2–24 μM, depending on the ligand. The dissociation constant for 1-NPN and the stoichiometry of binding were obtained by processing the data using Prism software. Dissociation constants of the competitors were calculated from the corresponding IC50 values (concentrations of ligands halving the initial fluorescence value of 1-NPN), using the equation: Ki = [IC50] / (1 + [1-NPN] / K1-NPN), where [1-NPN] is the free concentration of 1-NPN and K1-NPN is the dissociation constant of the complex protein/1-NPN.

Assay [3] concerns Maruca vitrata females. The experiment in a line: Field trapping experiment with volatile-baited Delta-traps. The assay is classed as in vivo. The settings on record: 100 μl of 100 ng/μl in hexane on rubber septa, one week, six traps, Student's t-test. The protocol:
Field trap experiments were determined as described by Wang et al. Custom-built Delta-traps with sticky inserts and rubber septa purchased from Pherobio Technology Co. Ltd. were used in the field experiments during the moth flight season in 2014. Traps were suspended from iron stakes and placed approximately 15 m apart. Key components of host-plant volatiles were prepared in hexane, and 100 μl solution (100 ng/μl) were added to rubber septa to be used as lures. Hexane was used as blank control and six trap replicates were used in the field experiment. Traps were checked everyday and the number of female moths per trap was determined for one week. Statistical analyses of trap data were used SPSS (SPSS Inc., Chicago, Illinous, U.S.A.), the significance of the differences between tested group and control group was evaluated by Student's t-test at P < 0.05 and P < 0.01.

Assay [4] addresses MvitGOBP2 (Maruca vitrata, UniProt A0A088MJX9). Briefly: Fluorescence competitive binding assay (1-NPN displacement) with recombinant MvitGOBP2. As to conditions: for binding ability to MvitGOBP2 (in words): among the 17 tested compounds. The protocol: as §1
The subject of assay [5] is M. vitrata females. Details: method as in earlier work. As to conditions: cited from earlier work.
[6] abbreviates: dissociation constant calculated from IC50, 1-NPN competition, read-out: MvitGOBP1 Ki.
Setting [7] is: ligand concentration displacing 50% of fluorescence of MvitGOBP1/1-NPN complex, protein and 1-NPN 2 μM, pH 7.4, 25°C, read-out: MvitGOBP1 IC50.
Setting [8] is: dissociation constant calculated from IC50, 1-NPN competition, read-out: MvitGOBP2 Ki.
[9] abbreviates: ligand concentration displacing 50% of fluorescence of MvitGOBP2/1-NPN complex, protein and 1-NPN 2 μM, pH 7.4, 25°C, read-out: MvitGOBP2 IC50.
The mark [10] stands for this setting: '-' = exceeded 50 μM for half-maximal inhibition, read-out: MvitGOBP2 IC50 (class symbol).

A word on the Ki: it is the dissociation constant of the complex between target and ligand, obtained from inhibition or displacement. The IC50 is the point on the concentration scale where inhibition reaches its midpoint.

MvitGOBP2, sequence (A0A088MJX9 entry or part of it): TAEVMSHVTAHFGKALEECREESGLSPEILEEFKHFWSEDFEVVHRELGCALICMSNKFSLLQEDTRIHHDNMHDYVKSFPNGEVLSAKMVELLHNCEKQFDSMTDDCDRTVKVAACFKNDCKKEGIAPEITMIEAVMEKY
MvitGOBP1, sequence (A0A0S1S6H9 entry or part of it): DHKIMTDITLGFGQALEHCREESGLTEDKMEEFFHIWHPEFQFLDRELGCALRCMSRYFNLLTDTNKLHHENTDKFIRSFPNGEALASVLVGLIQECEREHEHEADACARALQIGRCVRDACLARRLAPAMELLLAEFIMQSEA

On to `CC(=O)c1ccc(C)cc1C` [1-(2,4-Dimethylphenyl)-ethanone], for which the “EAD/EAG response of female antennae (in words)” value (“EAD/EAG response” for short) in assay [1] is “responded”.

For `CCc1ccc(C(C)=O)cc1` [1-(4-ethylphenyl)-ethanone], in assay [1], the “EAD/EAG response” value is “responded; also recorded: highest EAD responses”.

With `CCCCOC(=O)CCC` [Compound 1, Butanoic acid butyl ester], the Ki in assay [2] (setting [6]) was 12.5 µM; in assay [4] (setting [8]), 29.7 µM. Also, the IC50 in assay [2] (setting [7]) is 16.8 µM; in assay [4] (setting [9]) it was 44.8 µM. Also, the “EAD/EAG response” value in assay [1] was “responded”. Besides, the “female moths caught in traps vs blank lure” value in assay [3] was “significant difference compared with the blank lure”.

With `Oc1cccc2[nH]ccc12` [Compound 1H-indol-4-ol], the “attraction of females in wind tunnel (in words)” value (shortened to “attraction of females”) in assay [5] is given as “significantly attracted many M. vitrata females”. For the same compound, in assay [1], the “EAD/EAG response” value is “responded”. The “female moths caught in traps vs blank lure” value in assay [3] is reported as “significant difference compared with the blank lure”.

With `C=C(C)[C@H]1CC=C(C)CC1` [Compound 2, Limonene], the Ki in assay [2] (setting [6]) was 13.8 µM; in assay [4] (setting [8]), 29.2 µM. The IC50 in assay [2] (setting [7]) amounted to 18.6 µM; in assay [4] (setting [9]) it was 44.1 µM. In assay [5], the “attraction of females” value is reported as “significantly attracted many M. vitrata females; also recorded: strong behavioral activity”. Further, the “EAD/EAG response” value in assay [1] was “responded”. For the same compound, the entries for the “female moths caught in traps vs blank lure” value in assay [3] (listed as Limonene) and in assay [3] (listed as limonene) were “most female moths were trapped” and “significant difference compared with the blank lure; also recorded: highest trapping effect”, respectively.

As for `CCc1cccc(CC)c1` [Compound 3, 1,3-diethylbenzene], the results for the Ki in assay [2] (setting [6]) and in assay [4] (setting [8]) were 28.8 µM and 22.4 µM, respectively. In addition, the IC50 worked out at 38.7 µM in assay [2] (setting [7]) and 33.8 µM in assay [4] (setting [9]).

Regarding `CCc1ccc(CC)cc1` [Compound 4, 1,4-diethylbenzene], the Ki in assay [2] (setting [6]) was 19.2 µM; in assay [4] (setting [8]) it was 27.1 µM. The IC50 in assay [2] (setting [7]) came to 25.8 µM; in assay [4] (setting [9]) it was 40.9 µM.

On to `CCc1ccc(C=O)cc1` [Compound 4-ethylbenzaldehyde], for which, in assay [1], the “EAD/EAG response” value is reported as “responded”.

Take `CCC(=O)c1ccc(CC)cc1` [Compound 4-ethylpropiophenone]: the “female moths caught in traps vs blank lure” value in assay [3] is “significant difference compared with the blank lure”.

Take `O=Cc1ccccc1` [Compound 5, Benzaldehyde]: in assay [2], the IC50 stood at 22.4 µM and the Ki came to 16.6 µM. For the same compound, in assay [1], the “EAD/EAG response” value is recorded as “responded”. In assay [4], the IC50 was greater than 50 µM.

Take `CC(=O)c1ccccc1` [Compound 6, Acetophenone]: the Ki in assay [2] (setting [6]) is 21.2 µM; in assay [4] (setting [8]) it was 26.5 µM. Also, the IC50 in assay [2] (setting [7]) was 28.5 µM; in assay [4] (setting [9]), 40 µM.

For `O=Cc1ccccc1O` [Compound 7, 2-hydroxybenzaldehyde], in assay [2], the IC50 amounted to 20.8 µM and the Ki turned out to be 15.5 µM. Further, in assay [4], the IC50 was determined as 41.9 µM and the Ki turned out to be 22.9 µM.

As to `CCc1ccc(C=O)cc1` [Compound 8, 4-ethylbenzaldehyde], the Ki was 14.2 µM in assay [2] (setting [6]) and 33.1 µM in assay [4] (setting [8]). Also, the concentration for half-maximal inhibition (IC50) in assay [2] (setting [7]) amounted to 19.1 µM; in assay [4] (setting [9]) it was 50 µM.

`CCCCCCCCOC(=O)CCC` [Compound 9, Butanoic acid octyl ester]: the Ki in assay [2] (setting [6]) is 26.8 µM; in assay [4] (setting [8]), 8.5 µM. The IC50 in assay [2] (setting [7]) is 36.1 µM; in assay [4] (setting [9]), 12.9 µM. The entries for the “EAD/EAG response” value in assay [1] (listed as Butanoic acid octyl ester) and in assay [1] (listed as butanoic acid octyl ester) were “EAG response was weaker than other plant volatiles” and “responded”, respectively. The “female moths caught in traps vs blank lure” value in assay [3] is given as “significant difference compared with the blank lure”. In addition, the “binding ability to MvitGOBP2 (in words)” value in assay [4] is “very great bind ability”.

Turning to `CCc1ccc(C(C)=O)cc1` [Compound 10, 1-(4-ethylphenyl)-ethanone], the IC50 in assay [2] was 22.9 µM; in assay [4], 45 µM. Also, the Ki is 17 µM in assay [2] and 29.8 µM in assay [4].

Consider `CC(C=O)Cc1ccccc1` (centres unmarked) [Compound 11, 2-methyl-3-phenylpropanal], for which the Ki is 17.8 µM in assay [2] (setting [6]) and 3.81 µM in assay [4] (setting [8]). Further, the results for the IC50 in assay [2] (setting [7]) and in assay [4] (setting [9]) were 23.9 µM and 6.98 µM, respectively. Further, in assay [5], the “attraction of females” value is “attract significantly M. vitrata females”. The “EAD/EAG response” value in assay [1] is “responded; also recorded: high electrophysiological responses”. Moreover, the “female moths caught in traps vs blank lure” value in assay [3] is “significant difference compared with the blank lure”. Besides, the “binding ability to MvitGOBP2 (in words)” value in assay [4] is listed as “highest bind ability”.

With `CC(=O)c1ccc(C)cc1C` [Compound 12, 1-(2,4-Dimethylphenyl)-ethanone], the Ki in assay [2] (setting [6]) was 18 µM. For the same compound, the 50% inhibitory concentration (IC50) was 24.2 µM in assay [2] (setting [7]) and greater than 50 µM in assay [4] (setting [10]).

Regarding `CCC(=O)c1ccc(CC)cc1` [Compound 13, 4-ethylpropiophenone], the Ki in assay [2] (setting [6]) was 15.2 µM; in assay [4] (setting [8]), 26 µM. Besides, the IC50 in assay [2] (setting [7]) amounted to 20.4 µM; in assay [4] (setting [9]), 39.3 µM.

As for `CC(=O)c1ccc(O)c(C)c1` [Compound 14, 4-hydroxy-3-methylacetophenone], the Ki in assay [2] (setting [6]) is 18.3 µM; in assay [4] (setting [8]), 17.1 µM. Also, the IC50 was determined as 24.6 µM in assay [2] (setting [7]) and 25.8 µM in assay [4] (setting [9]).

As to `Oc1cccc2[nH]ccc12` [Compound 15, 1H-indol-4-ol], the Ki in assay [2] (setting [6]) is 10.9 µM. For the same compound, the IC50 was 14.6 µM in assay [2] (setting [7]) and greater than 50 µM in assay [4] (setting [10]).

As to `CC(=O)c1ccc(C(C)=O)cc1` [Compound 16, 1,4-diacetyl benzene], the IC50 in assay [2] is 30.5 µM; in assay [4] it was 49.6 µM. In addition, the Ki in assay [2] stood at 22.7 µM; in assay [4] it was 32.9 µM.

Turning to `Cc1cc(C)cc(C(C)(C)C)c1` [Compound 17, 1-(1,1-Dimethylethyl)-3,5-dimethylbenzene], the inhibition constant Ki in assay [2] (setting [6]) was 16.8 µM. For the same compound, the values for the half-inhibitory concentration (IC50) in assay [2] (setting [7]) and in assay [4] (setting [10]) were 22.6 µM and greater than 50 µM, respectively.
